Assay results as given in patent US20240002354A1, “ANTIDIABETIC COMPOUNDS AND COMPOSITIONS” (REZUBIO PHARMACEUTICALS CO., LTD, priority 2020, published 2024).

target: T1, GPR40 (Homo sapiens, UniProt O14842); assay: IP1 accumulation assay (Cisbio IP-One HTRF) in HEK293 cells stably expressing GPR40; type: cell-based; details: HEK293 cells stably expressing GPR40, 37° C. for 2 hours, % Effect relative to AMG-1638 positive control
T1 construct: expressed in transfected cells
Experimental: IP1 accumulation assay was used to evaluate the potency of compounds. HEK293 cells stably expressing GPR40 were cultured in 5% CO2 incubator (ThermoFisher) in maintenance media (Dulbecco's modified Eagle's medium with 4.5 g/L of glucose, 10% fetal bovine serum, 100 μg/mL Hygromycin, and Penicillin (100 U/mL)/Streptomycin (100 μg/mL)) till 100% confluency. Cells were harvested freshly, spun down at 300×g for 5 min, and resuspended in pre-warmed 1× stimulant buffer from Cisbio IP-One HTRF Detection kit (Cisbio). Cell density was adjusted to 2.0×10^6 cells/mL. DMSO was used as blank control and AMG-1638 (CAS #: 1142214-62-7) as positive control. Compounds were prepared at 10 mM in DMSO and 5 nL of 3× serially diluted compounds (10 concentrations) were added to each well of the 384-LDV assay plate (Corning) by using ECHO 550 (Labcyte). Five μL of cells in suspension were transferred into each well by using Multidrop Combi Reagent Dispenser (ThermoFisher). Assay plate was then sealed and incubated at 37° C. for 2 hours. IP-d2 reagent and anti-IP1 reagent were prepared following the manual (Cisbio). Five μL of IP1-d2 and then 5 μL of anti-IP1 antibody was added to each well sequentially. Assay plate was incubated at room temperature for 60 min and then read at 665 nm/615 nm on an Envision plate reader (PerkinElmer). The ratio of values obtained at 665 nm and 615 nm was used for calculation of IP1 accumulation: % Effect=(Ratiosample−Ratioblank)/(RatioAMG-1638−Ratioblank)×100. Dose curve was fitted and EC50 of each compound was calculated by using XLFit.

T1 sequence (O14842 whole entry): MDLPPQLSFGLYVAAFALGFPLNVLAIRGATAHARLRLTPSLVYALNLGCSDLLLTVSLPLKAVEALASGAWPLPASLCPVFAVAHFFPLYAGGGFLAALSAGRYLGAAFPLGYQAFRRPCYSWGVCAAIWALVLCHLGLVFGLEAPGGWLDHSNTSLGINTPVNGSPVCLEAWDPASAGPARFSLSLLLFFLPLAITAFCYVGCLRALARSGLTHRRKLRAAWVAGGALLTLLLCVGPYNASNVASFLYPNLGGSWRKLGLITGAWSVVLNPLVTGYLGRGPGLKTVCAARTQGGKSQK

Compound | EC50 [nM]
CCCCCCn1cc(-c2ccc(OC(F)(F)F)c(CN3CCC([C@H]4CCc5ccc([C@H](C6CC6)[C@H](C)C(=O)O)cc5O4)CC3)c2)nn1 [compound 187, (2S,3R)-3-cyclopropyl-3-((R)-2-(1-(5-(1-hexyl-1H-1,2,3-triazol-4-yl)-2-(trifluoro-methoxy)benzyl)piperidin-4-yl)chroman-7-yl)-2-methylpropanoic acid] | 50 to 250
COc1ccc2cc(CN=[N+]=[N-])oc2c1CN1CCC([C@H]2CCc3ccc([C@H](C4CC4)[C@H](C)C(=O)O)cc3O2)CC1 [compound 207, (2S,3R)-3-((R)-2-(1-((2-(azidomethyl)-6-methoxybenzofuran-7-yl)methyl)-piperidin-4-yl)chroman-7-yl)-3-cyclopropyl-2-methylpropanoic acid] | ≥ 5000
C[C@H](C(=O)O)[C@H](c1ccc2c(c1)O[C@@H](C1CCN(Cc3cc(CN=[N+]=[N-])ccc3OC(F)(F)F)CC1)CC2)C1CC1 [Compound 201] | 1 to 50
C[C@H](C(=O)O)[C@H](c1ccc2c(c1)O[C@H](C1CCN(Cc3cc(N=[N+]=[N-])ccc3OC(F)(F)F)CC1)CC2)C1CC1 [compound 194, (2S,3R)-3-((S)-2-(1-(5-azido-2-(trifluoromethoxy)benzyl)piperidin-4-yl)chroman-7-yl)-3-cyclopropyl-2-methylpropanoic acid] | 1 to 50
(2S,2'S,3R,3′R)-3,3′-((2R,2′R)-2,2′-(1,1′-(((1,1′-(26-(2-(bis(3-((2-aminoethyl)amino)-3-oxopropyl)amino) ethyl)-18,23,29,34-tetraoxo-19,22,26,30,33-pentaazahenpentacontane-1,51-diyl)bis(1H-1,2,3-triazole-4,1-diyl))bis(2-(trifluoromethoxy)-5,1-phenylene))bis(methylene))bis (piperidine-4,1-diyl))bis(chroman-7,2-diyl))bis(3-cyclopropyl-2-methylpropanoic acid) [compound 203] | 50 to 250
CCCCCCc1cn(Cc2cc3ccc(OC)c(CN4CCC([C@H]5CCc6ccc([C@H](C7CC7)[C@H](C)C(=O)O)cc6O5)CC4)c3o2)nn1 [compound 209, (2S,3R)-3-cyclopropyl-3-((R)-2-(1-((2-((4-hexyl-1H-1,2,3-triazol-1-yl)methyl)-6-methoxybenzofuran-7-yl)methyl)piperidin-4-yl)chroman-7-yl)-2-methylpropanoic acid] | 1000 to 5000
COc1ccc(F)c(-c2ccc(COc3cccc([C@@H](CC(=O)O)C4CC4)c3)cc2C(OCCCCN=[N+]=[N-])C(C)(C)C)c1 (stereo partly drawn) [Compound No. 232, (3S)-3-(3-((2-(1-(4-azidobutoxy)-2,2-dimethylpropyl)-2′-fluoro-5′-methoxy-[1,1′-biphenyl]-4-yl)methoxy)phenyl)-3-cyclopropylpropanoic acid] | 1 to 50
CCCCCCc1cn(CCc2ccc(OC(F)(F)F)c(CN3CCC([C@H]4CCc5ccc([C@H](C6CC6)[C@H](C)C(=O)O)cc5O4)CC3)c2)nn1 [compound 189, (2S,3R)-3-cyclopropyl-3-((R)-2-(1-(5-(2-(4-hexyl-1H-1,2,3-triazol-1-yl)ethyl)-2-(trifluoro-methoxy)benzyl)piperidin-4-yl)chroman-7-yl)-2-methylpropanoic acid] | 1 to 50
CC[C@H](CC(=O)O)c1cccc(OCc2ccc(-c3cc(OC)ccc3F)c(OCc3cn(CCCCCCCCCCCCCCCCCC(=O)O)nn3)c2)c1 [Compound No. 212] | ≥ 5000
C[C@H](C(=O)O)[C@H](c1ccc2c(c1)O[C@@H](C1CCN(Cc3cc(-c4cn(CCCCCCCCCCCCCCCCCC(=O)OCc5ccccc5)nn4)ccc3OC(F)(F)F)CC1)CC2)C1CC1 [compound 210, (2S,3R)-3-((R)-2-(1-(5-(1-(18-(benzyloxy)-18-oxooctadecyl)-1H-1,2,3-triazol-4-yl)-2-(trifluoromethoxy)benzyl)piperidin-4-yl)chroman-7-yl)-3-cyclopropyl-2-methylpropanoic acid] | 50 to 250
COc1ccc(F)c(-c2ccc(COc3cccc([C@@H](CC(=O)O)C4CC4)c3)cc2C(OCCCCCn2cc(CCCCCCCCCCCCCCCCCC(=O)O)nn2)C(C)(C)C)c1 (stereo partly drawn) [Compound No. 234] | 250 to 1000

Next, values leading:

EC50 [nM] | Compound
50 to 250 | COc1ccc(F)c(-c2ccc(COc3cccc([C@@H](CC(=O)O)C4CC4)c3)cc2C(C)(C)Cn2cc(CCCCCCCCCCCCCCCCCC(=O)O)nn2)c1 [Compound No. 226, (S)-18-(1-(2-(4-((3-(2-carboxy-1-cyclopropylethyl)phenoxy)methyl)-2′-fluoro-5′-methoxy-[1,1′-biphenyl]-2-yl)-2-methylpropyl)-1H-1,2,3-triazol-4-yl)octadecanoic acid]
250 to 1000 | CCCCCCn1cc(C(C)(C)c2cc(COc3cccc([C@@H](CC(=O)O)C4CC4)c3)ccc2-c2cc(OC)ccc2F)nn1 [Compound No. 219, (S)-3-cyclopropyl-3-(3-{2′-fluoro-2-[1-(1-hexyl-1H-[1,2,3]triazol-4-yl)-1-methyl-ethyl]-5′-methoxy-biphenyl-4-ylmethoxy}-phenyl)-propionic acid]
250 to 1000 | CCCCCCn1cc(COCC(C)(C)c2cc(COc3cccc([C@@H](CC(=O)O)C4CC4)c3)ccc2-c2cc(OC)ccc2F)nn1 [Compound No. 229, (S)-3-cyclopropyl-3-(3-((2′-fluoro-2-(1-((1-hexyl-1H-1,2,3-triazol-4-yl)methoxy)-2-methylpropan-2-yl)-5′-methoxy-[1,1′-biphenyl]-4-yl)methoxy)phenyl) propanoic acid]
1 to 50 | CCCCCCc1cn(CCCCCOC(c2cc(COc3cccc([C@@H](CC(=O)O)C4CC4)c3)ccc2-c2cc(OC)ccc2F)C(C)(C)C)nn1 (stereo partly drawn) [Compound No. 233]
250 to 1000 | CCCCCCc1cn(C(C)(C)c2cc(COc3cccc([C@@H](CC(=O)O)C4CC4)c3)ccc2-c2cc(OC)ccc2F)nn1 [Compound No. 218, (S)-3-cyclopropyl-3-(3-((2′-fluoro-2-(2-(4-hexyl-1H-1,2,3-triazol-1-yl)propan-2-yl)-5′-methoxy-[1,1′-biphenyl]-4-yl)methoxy)phenyl)propanoic acid]
≥ 5000 | COC(=O)CCCCCCCCCCCCCCCCCc1cn(CC(C)(C)c2cc(COc3cccc([C@@H](CC(=O)O)C4CC4)c3)ccc2-c2cc(OC)ccc2F)nn1 [Compound No. 227, (S)-3-cyclopropyl-3-(3-((2′-fluoro-5′-methoxy-2-(1-(4-(18-methoxy-18-oxooctadecyl)-1H-1,2,3-triazol-1-yl)-2-methylpropan-2-yl)-[1,1′-biphenyl]-4-yl)methoxy)phenyl)propanoic acid]
250 to 1000 | COc1ccc(F)c(-c2ccc(COc3cccc([C@@H](CC(=O)O)C4CC4)c3)cc2C(C)(C)c2cn(CCCCCCCCCCCCCCCCCC(=O)O)nn2)c1 [Compound No. 221, (S)-18-[4-(1-{4-[3-(2-Carboxy-1-cyclopropyl-ethyl)-phenoxymethyl]-2′-fluoro-5′-methoxy-biphenyl-2-yl}-1-methyl-ethyl)-[1,2,3]triazol-1-yl]-octadecanoic acid]
1 to 50 | COc1ccc(F)c(-c2ccc(COc3cccc([C@@H](CC(=O)O)C4CC4)c3)cc2C(OC)C(C)(C)CN=[N+]=[N-])c1 (stereo partly drawn) [Compound No. 236, (3S)-3-(3-((2-(3-azido-1-methoxy-2,2-dimethylpropyl)-2′-fluoro-5′-methoxy-[1,1′-biphenyl]-4-yl)methoxy)phenyl)-3-cyclopropylpropanoic acid]
≥ 5000 | COC(=O)CCCCCCCCCCCCCCCCCn1cc(COCC(C)(C)c2cc(COc3cccc([C@@H](CC(=O)O)C4CC4)c3)ccc2-c2cc(OC)ccc2F)nn1 [Compound No. 231, (S)-3-cyclopropyl-3-(3-((2′-fluoro-5′-methoxy-2-(1-((1-(18-methoxy-18-oxooctadecyl)-1H-1,2,3-triazol-4-yl)methoxy)-2-methylpropan-2-yl)-[1,1′-biphenyl]-4-yl)methoxy)phenyl)propanoic acid]
50 to 250 | CCCCCCc1cn(CC(C)(C)c2cc(COc3cccc([C@@H](CC(=O)O)C4CC4)c3)ccc2-c2cc(OC)ccc2F)nn1 [Compound No. 225, (S)-3-cyclopropyl-3-(3-{2′-fluoro-2-[2-(4-hexyl-[1,2,3]triazol-1-yl)-1,1-dimethyl-ethyl]-5′-methoxy-biphenyl-4-ylmethoxy}-phenyl)-propionic acid]
1000 to 5000 | CCCCCCn1cc(COc2cc(COc3cccc([C@H](CC)CC(=O)O)c3)ccc2-c2cc(OC)ccc2F)nn1 [Compound No. 213]
1 to 50 | COc1ccc(F)c(-c2ccc(COc3cccc([C@@H](CC(=O)O)C4CC4)c3)cc2CC(C)(C)CN=[N+]=[N-])c1 [Compound No. 237, (S)-3-(3-((2-(3-azido-2,2-dimethylpropyl)-2′-fluoro-5′-methoxy-[1,1′-biphenyl]-4-yl)methoxy)phenyl)-3-cyclopropylpropanoic acid]
1 to 50 | COc1ccc(F)c(-c2ccc(COc3cccc([C@@H](CC(=O)O)C4CC4)c3)cc2C(C)(C)N=[N+]=[N-])c1 [Compound No. 216, (S)-3-(3-((2-(2-azidopropan-2-yl)-2′-fluoro-5′-methoxy-[1,1′-biphenyl]-4-yl)methoxy)phenyl)-3-cyclopropylpropanoic acid]
